In the kinase profiling compilation of Christmann-Franck et al. (2016):

Key:
Assay in all cases: KINOMEscan competition binding
Details in all cases: compound 10.0 µM
EPHA2 (human) = EPHA2 (human) (UniProt P29317)
ERBB4 (human) = ERBB4 (human) (UniProt Q15303)
AURKB (human) = AURKB (human) (UniProt Q96GD4)
STK17A (human) = STK17A (human) (UniProt Q9UEE5)
ROCK2 (human) = ROCK2 (human) (UniProt O75116)
CSNK1A1 (human) = CSNK1A1 (human) (UniProt P48729)
MAP3K14 (human) = MAP3K14 (human) (UniProt Q99558)
PAK1 (human) = PAK1 (human) (UniProt Q13153)
[1] = test system: ABL1 (human), P00519 [T315I]
SRC (human) = SRC (human) (UniProt P12931)
TLK1 (human) = TLK1 (human) (UniProt Q9UKI8)
CDK19 (human) = CDK19 (human) (UniProt Q9BWU1)
WNK1 (human) = WNK1 (human) (UniProt Q9H4A3)
[2] = test system: KIT (human), P10721 [D816V]
GSK3B (human) = GSK3B (human) (UniProt P49841)
CSF1R (human) = CSF1R (human) (UniProt P07333)
STK16 (human) = STK16 (human) (UniProt O75716)
AURKA (human) = AURKA (human) (UniProt O14965)
FGFR3 (human) = FGFR3 (human) (UniProt P22607)
KIT (human) = KIT (human) (UniProt P10721)
FLT3 (human) = FLT3 (human) (UniProt P36888)
SIK1 (human) = SIK1 (human) (UniProt P57059)
[3] = target: TYK2 JH1 catalytic (human) (UniProt P29597)
PLK3 (human) = PLK3 (human) (UniProt Q9H4B4)
PRKCE (human) = PRKCE (human) (UniProt Q02156)
MAP3K7 (human) = MAP3K7 (human) (UniProt O43318)
MAPK8 (human) = MAPK8 (human) (UniProt P45983)
SRPK3 (human) = SRPK3 (human) (UniProt Q9UPE1)
ANKK1 (human) = ANKK1 (human) (UniProt Q8NFD2)
CDK2 (human) = CDK2 (human) (UniProt P24941)
CDK16 (human) = CDK16 (human) (UniProt Q00536)
MAPKAPK2 (human) = MAPKAPK2 (human) (UniProt P49137)
CHEK1 (human) = CHEK1 (human) (UniProt O14757)
PIM3 (human) = PIM3 (human) (UniProt Q86V86)
AKT1 (human) = AKT1 (human) (UniProt P31749)
PAK4 (human) = PAK4 (human) (UniProt O96013)
CDK3 (human) = CDK3 (human) (UniProt Q00526)
NTRK1 (human) = NTRK1 (human) (UniProt P04629)
MAP4K1 (human) = MAP4K1 (human) (UniProt Q92918)
MAP3K5 (human) = MAP3K5 (human) (UniProt Q99683)
NEK6 (human) = NEK6 (human) (UniProt Q9HC98)

Chain of SRC (human) (P12931 whole entry, looked up): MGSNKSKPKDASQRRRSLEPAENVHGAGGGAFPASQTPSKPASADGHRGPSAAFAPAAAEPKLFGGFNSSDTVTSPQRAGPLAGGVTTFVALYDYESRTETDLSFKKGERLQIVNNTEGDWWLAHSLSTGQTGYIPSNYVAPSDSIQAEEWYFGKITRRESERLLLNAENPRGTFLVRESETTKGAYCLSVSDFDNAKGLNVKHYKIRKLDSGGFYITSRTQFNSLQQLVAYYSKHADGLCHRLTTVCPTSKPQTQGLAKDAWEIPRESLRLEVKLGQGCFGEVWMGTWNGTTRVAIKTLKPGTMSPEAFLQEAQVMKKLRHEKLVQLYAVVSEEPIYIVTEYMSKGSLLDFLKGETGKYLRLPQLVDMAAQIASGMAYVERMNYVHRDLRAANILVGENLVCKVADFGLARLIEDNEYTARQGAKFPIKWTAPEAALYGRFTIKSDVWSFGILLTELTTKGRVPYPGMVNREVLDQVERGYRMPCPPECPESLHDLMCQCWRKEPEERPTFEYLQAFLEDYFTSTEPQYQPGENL
Chain of CSF1R (human) (P07333 whole entry, looked up): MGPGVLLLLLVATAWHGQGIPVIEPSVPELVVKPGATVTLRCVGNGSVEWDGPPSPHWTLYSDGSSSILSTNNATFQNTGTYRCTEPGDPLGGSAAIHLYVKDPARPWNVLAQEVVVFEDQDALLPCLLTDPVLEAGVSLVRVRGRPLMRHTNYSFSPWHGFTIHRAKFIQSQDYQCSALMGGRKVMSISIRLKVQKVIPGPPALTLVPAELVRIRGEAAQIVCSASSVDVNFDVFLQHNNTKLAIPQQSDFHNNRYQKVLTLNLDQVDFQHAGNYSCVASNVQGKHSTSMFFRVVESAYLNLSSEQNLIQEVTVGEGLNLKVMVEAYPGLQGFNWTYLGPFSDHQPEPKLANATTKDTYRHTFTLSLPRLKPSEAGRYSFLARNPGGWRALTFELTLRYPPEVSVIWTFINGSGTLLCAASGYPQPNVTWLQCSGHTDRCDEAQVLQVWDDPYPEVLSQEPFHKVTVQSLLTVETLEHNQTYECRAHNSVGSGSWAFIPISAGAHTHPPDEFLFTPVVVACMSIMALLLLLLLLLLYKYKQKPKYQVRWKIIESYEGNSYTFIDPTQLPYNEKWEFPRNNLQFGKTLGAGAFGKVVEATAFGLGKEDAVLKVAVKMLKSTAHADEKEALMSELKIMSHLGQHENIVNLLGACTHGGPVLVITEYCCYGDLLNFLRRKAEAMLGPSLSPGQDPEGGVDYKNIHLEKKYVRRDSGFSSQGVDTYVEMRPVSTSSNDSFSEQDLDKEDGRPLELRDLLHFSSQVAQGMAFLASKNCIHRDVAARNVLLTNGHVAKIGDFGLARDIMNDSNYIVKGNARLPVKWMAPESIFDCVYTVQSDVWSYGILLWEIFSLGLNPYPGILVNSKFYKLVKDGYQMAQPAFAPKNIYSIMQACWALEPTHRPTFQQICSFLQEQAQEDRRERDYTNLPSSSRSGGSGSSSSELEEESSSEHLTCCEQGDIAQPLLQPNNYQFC
Chain of EPHA2 (human) (P29317 whole entry, looked up): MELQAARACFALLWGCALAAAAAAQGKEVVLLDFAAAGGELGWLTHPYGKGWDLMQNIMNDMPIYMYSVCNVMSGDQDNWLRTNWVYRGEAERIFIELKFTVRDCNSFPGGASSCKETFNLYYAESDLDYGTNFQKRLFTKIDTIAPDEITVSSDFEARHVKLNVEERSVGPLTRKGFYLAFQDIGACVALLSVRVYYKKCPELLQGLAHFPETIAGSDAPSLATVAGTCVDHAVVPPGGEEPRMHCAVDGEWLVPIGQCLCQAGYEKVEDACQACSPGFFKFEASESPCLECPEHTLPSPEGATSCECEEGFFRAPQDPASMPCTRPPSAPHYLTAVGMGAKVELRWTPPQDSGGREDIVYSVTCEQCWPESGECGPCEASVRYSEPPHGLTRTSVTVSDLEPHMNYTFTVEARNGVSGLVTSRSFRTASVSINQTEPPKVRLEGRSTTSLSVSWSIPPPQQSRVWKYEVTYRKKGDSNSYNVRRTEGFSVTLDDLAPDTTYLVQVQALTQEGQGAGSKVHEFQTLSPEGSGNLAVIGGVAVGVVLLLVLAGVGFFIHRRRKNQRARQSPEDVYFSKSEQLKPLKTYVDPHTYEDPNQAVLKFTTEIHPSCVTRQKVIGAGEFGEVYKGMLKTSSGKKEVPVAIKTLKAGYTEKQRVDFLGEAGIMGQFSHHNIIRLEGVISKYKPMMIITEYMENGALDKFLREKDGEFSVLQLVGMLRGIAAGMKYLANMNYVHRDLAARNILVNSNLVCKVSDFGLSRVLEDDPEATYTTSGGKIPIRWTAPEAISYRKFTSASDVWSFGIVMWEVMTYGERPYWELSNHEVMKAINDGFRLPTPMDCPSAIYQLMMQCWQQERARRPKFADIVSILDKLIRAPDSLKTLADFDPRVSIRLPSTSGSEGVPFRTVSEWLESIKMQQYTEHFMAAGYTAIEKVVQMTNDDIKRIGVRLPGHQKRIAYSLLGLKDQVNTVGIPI
Chain of PRKCE (human) (Q02156 whole entry, looked up): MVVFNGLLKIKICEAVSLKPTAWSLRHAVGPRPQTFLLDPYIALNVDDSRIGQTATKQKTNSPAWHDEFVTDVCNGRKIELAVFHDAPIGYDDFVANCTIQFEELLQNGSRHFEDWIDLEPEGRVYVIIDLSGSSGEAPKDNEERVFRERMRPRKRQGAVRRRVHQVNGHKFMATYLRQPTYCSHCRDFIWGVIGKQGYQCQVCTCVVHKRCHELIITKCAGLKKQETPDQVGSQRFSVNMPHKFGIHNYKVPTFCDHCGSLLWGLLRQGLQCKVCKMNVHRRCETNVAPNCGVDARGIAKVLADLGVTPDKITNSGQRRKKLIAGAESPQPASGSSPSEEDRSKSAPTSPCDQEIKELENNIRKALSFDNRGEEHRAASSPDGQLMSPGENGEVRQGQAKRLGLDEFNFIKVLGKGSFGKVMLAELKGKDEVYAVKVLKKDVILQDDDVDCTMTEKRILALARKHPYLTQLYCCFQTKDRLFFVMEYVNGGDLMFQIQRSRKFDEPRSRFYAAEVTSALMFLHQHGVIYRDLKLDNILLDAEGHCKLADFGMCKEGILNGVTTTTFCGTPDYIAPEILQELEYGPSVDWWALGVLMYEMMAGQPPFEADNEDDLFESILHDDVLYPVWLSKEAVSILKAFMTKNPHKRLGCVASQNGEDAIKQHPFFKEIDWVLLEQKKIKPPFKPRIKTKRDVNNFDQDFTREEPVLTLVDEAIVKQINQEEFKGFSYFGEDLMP
Chain of FLT3 (human) (P36888 whole entry, looked up): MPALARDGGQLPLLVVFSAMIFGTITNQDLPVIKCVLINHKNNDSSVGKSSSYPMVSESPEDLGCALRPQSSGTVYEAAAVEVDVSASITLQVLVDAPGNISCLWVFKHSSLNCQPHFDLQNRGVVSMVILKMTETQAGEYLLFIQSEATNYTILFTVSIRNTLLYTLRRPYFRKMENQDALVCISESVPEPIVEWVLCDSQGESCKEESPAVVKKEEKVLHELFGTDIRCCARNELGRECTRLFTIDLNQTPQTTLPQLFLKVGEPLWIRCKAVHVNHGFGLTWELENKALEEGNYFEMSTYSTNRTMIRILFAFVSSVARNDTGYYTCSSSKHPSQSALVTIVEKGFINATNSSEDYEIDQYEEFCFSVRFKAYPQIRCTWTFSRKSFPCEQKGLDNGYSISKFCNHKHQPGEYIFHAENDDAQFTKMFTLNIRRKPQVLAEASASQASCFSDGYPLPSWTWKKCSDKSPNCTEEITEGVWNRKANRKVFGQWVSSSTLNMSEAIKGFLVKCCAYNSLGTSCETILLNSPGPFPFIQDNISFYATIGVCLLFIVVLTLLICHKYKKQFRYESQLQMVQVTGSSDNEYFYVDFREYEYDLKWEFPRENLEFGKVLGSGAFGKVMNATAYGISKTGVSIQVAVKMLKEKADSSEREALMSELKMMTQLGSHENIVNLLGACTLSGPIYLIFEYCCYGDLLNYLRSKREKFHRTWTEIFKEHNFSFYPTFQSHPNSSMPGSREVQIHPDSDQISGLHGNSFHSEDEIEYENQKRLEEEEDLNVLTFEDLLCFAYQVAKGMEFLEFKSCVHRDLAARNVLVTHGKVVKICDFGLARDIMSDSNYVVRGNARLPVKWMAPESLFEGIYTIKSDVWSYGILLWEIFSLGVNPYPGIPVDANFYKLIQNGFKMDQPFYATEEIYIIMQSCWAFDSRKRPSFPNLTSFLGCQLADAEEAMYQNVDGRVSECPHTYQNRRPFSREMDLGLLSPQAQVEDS
Chain of ANKK1 (human) (Q8NFD2 whole entry, looked up): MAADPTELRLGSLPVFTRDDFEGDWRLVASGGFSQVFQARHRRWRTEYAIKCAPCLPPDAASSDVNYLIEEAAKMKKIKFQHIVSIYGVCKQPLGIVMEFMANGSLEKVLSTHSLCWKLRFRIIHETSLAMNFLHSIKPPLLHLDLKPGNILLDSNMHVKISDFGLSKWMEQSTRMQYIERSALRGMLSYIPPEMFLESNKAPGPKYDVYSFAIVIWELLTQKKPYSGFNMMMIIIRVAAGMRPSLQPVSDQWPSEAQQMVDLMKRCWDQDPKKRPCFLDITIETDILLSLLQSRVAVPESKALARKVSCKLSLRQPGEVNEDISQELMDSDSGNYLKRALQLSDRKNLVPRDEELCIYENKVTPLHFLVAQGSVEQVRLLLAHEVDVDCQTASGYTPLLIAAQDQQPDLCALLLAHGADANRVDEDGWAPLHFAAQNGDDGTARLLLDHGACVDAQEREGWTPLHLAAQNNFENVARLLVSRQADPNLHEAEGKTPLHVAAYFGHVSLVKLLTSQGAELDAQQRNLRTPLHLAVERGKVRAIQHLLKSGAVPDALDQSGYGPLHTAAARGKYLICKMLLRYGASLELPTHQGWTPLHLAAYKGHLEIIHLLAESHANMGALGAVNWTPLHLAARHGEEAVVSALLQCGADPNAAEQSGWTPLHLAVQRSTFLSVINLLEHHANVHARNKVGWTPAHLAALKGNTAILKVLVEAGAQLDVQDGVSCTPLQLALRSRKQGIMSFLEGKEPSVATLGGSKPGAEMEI

O=C(Nc1ccc(Oc2ncnc3[nH]ncc23)cc1)Nc1ccc(Cl)c(C(F)(F)F)c1
kinase still bound, per cent of control (EPHA2 (human)): 37% | kinase still bound, per cent of control (ERBB4 (human)): 94% | kinase still bound, per cent of control (AURKB (human)): 4.7% | kinase still bound, per cent of control (STK17A (human)): 62% | kinase still bound, per cent of control (ROCK2 (human)): 63% | kinase still bound, per cent of control (CSNK1A1 (human)): 100% | kinase still bound, per cent of control (MAP3K14 (human)): 97% | kinase still bound, per cent of control (PAK1 (human)): 86% | kinase still bound, per cent of control [1]: 46% | kinase still bound, per cent of control (SRC (human)): 70% | kinase still bound, per cent of control (TLK1 (human)): 100% | kinase still bound, per cent of control (CDK19 (human)): 0.35% | kinase still bound, per cent of control (WNK1 (human)): 100% | kinase still bound, per cent of control [2]: 1.7% | kinase still bound, per cent of control (GSK3B (human)): 99% | kinase still bound, per cent of control (CSF1R (human)): 0.3% | kinase still bound, per cent of control (STK16 (human)): 100% | kinase still bound, per cent of control (AURKA (human)): 23% | kinase still bound, per cent of control (FGFR3 (human)): 80% | kinase still bound, per cent of control (KIT (human)): 0.05% | kinase still bound, per cent of control (FLT3 (human)): 0% | kinase still bound, per cent of control (SIK1 (human)): 100% | kinase still bound, per cent of control [3]: 88% | kinase still bound, per cent of control (PLK3 (human)): 16% | kinase still bound, per cent of control (PRKCE (human)): 86% | kinase still bound, per cent of control (MAP3K7 (human)): 7.2% | kinase still bound, per cent of control (MAPK8 (human)): 85% | kinase still bound, per cent of control (SRPK3 (human)): 100% | kinase still bound, per cent of control (ANKK1 (human)): 89% | kinase still bound, per cent of control (CDK2 (human)): 64% | kinase still bound, per cent of control (CDK16 (human)): 98% | kinase still bound, per cent of control (MAPKAPK2 (human)): 100% | kinase still bound, per cent of control (CHEK1 (human)): 100% | kinase still bound, per cent of control (PIM3 (human)): 94% | kinase still bound, per cent of control (AKT1 (human)): 100% | kinase still bound, per cent of control (PAK4 (human)): 100% | kinase still bound, per cent of control (CDK3 (human)): 44% | kinase still bound, per cent of control (NTRK1 (human)): 41% | kinase still bound, per cent of control (MAP4K1 (human)): 61% | kinase still bound, per cent of control (MAP3K5 (human)): 90% | kinase still bound, per cent of control (NEK6 (human)): 100%
